Literature values as cited in patent US5945412A, “Methods and compositions for preventing and treating bone loss” (Merck & Co., Inc., priority 1997, dated 1999).

Tested on: human type 2 enzyme (5α-reductase)
Conditions: background statement

inhibition of the human type 2 enzyme (in words): potent inhibitor
Structure (SMILES): CC(C)(C)NC(=O)[C@H]1CC[C@H]2[C@@H]3CC[C@H]4NC(=O)C=C[C@]4(C)[C@H]3CC[C@]12C [Finasteride, 17β-(N-tert-butylcarbamoyl)-3-oxo-4-aza-5α-androst-1-en-3-one]
